What was measured:
[1] = Inhibition of [3H]DTG binding to sigma receptor from guinea pig brain cortex membrane
[2] = Inhibitory activity against 5-hydroxytryptamine 1A receptor isolated from rat hippocampus membranes membrane using [3H]5-HT as radioligand in the presence of 10e-6 M ketanserin as 5-HT2 blocker
[3] = target: Sigma non-opioid intracellular receptor 1 (Cavia porcellus) (UniProt Q60492); test: Inhibitory activity against sigma receptor isolated from guinea pig brain cortex membrane using [3H]DTG as radioligand
Sequence of Sigma non-opioid intracellular receptor 1 (Cavia porcellus) (Q60492 whole entry, looked up): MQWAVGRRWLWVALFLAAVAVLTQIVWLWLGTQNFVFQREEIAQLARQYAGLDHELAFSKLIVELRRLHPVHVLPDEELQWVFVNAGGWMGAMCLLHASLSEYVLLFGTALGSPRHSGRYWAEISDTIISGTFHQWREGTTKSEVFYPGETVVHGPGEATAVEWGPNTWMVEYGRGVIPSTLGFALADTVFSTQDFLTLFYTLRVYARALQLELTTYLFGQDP

[4] = Inhibitory activity against sigma receptor isolated from guinea pig brain cortex membrane using PCP as radioligand at a concentration of 10e-5 M

Ki [1] [nM]	Ki [2] [nM]	Ki [3] [nM]	Ki [4] [nM]	Compound
> 877				COc1cccc2c1CCCC2CCCN1CCNCC1 (stereo unspecified) [1-(3-(5-methoxy-1,2,3,4-tetrahydronaphthalen-1-yl)propyl)piperazine]
	> 1430	139		COc1cccc2c1CCC=C2CCCN1CCN(Cc2ccccc2)CC1 [1-Benzyl-4-[3-(5-methoxy-3,4-dihydro-naphthalen-1-yl)-propyl]-piperazine]
29				COc1ccc2c(c1)C(CCCN1CCN(C3=NCCCC3)CC1)CCC2 (stereo unspecified) [1-[3-(7-Methoxy-1,2,3,4-tetrahydro-naphthalen-1-yl)-propyl]-4-(3,4,5,6-tetrahydro-pyridin-2-yl)-piperazine]
265			2130	COc1cccc2c1CCCC2CCCNCCNc1ccccc1 (stereo unspecified) [N-[3-(5-Methoxy-1,2,3,4-tetrahydro-naphthalen-1-yl)-propyl]-N'-phenyl-ethane-1,2-diamine]

Reference: BindingDB's records for doi:10.1021/jm950409c (University of Bari Aldo Moro, 1996)
